Measurements taken from patent US20020091124A1, “2-acyl indole derivatives and their use as antitumor agents” (priority 2000, published 2002).
Like-named read-outs stand apart in the source and are kept apart here.

Legend:
[1] = test system: human glioma cell line U373; assay: XTT cytotoxicity test, U373; conditions: U373 MG, 45 h, read-out: IC50 U373
[2] = test system: human melanoma MEXF 989; assay: Human tumor xenograft MEXF 989 in naked mice; type: in vivo; conditions: MEXF 989, oral, 2 weeks, 5 administrations per week
From the text: (§1) For the in vivo experiments on naked mice, subcutaneously transplanted tumor fragments of the human melanoma MEXF 989 and/or the rhabdomyosarcoma SXF 463 were used. […]; Monday to Friday). […]. The cell lines included intestinal (2), stomach (1), lung (3), breast (2), melanoma (2), ovary (1), kidney (1) and uterus (1) tumor cell lines. […]. Emphasis is furthermore to be given to the oral bioavailability of the indole compounds according to the invention. […]

[3] = test system: human glioma cell line U118; assay: XTT cytotoxicity test, U118; conditions: 45 h, read-out: IC50 U118
[4] = test system: human glioblastoma cell line U373; assay: Cell cycle analysis by FACS; conditions: U373, treated 24 h, FIG. 2
[5] = test system: human glioma cell line A-172; assay: XTT cytotoxicity test, A-172; conditions: A 172, 45 h, read-out: IC50 A-172
[6] = test system: RKO p21 cells; assay: RKOp21 model, XTT assay; type: cell-based; conditions: Homo sapiens; Table 2; read-out: RKP p21 induced IC50
From the text: The model used for examining the cell cycle-specific action was the RKOp21 cell system (M. Schmidt et al. Oncogene19(20):2423-9, 2000). RKO is a human colon carcinoma line in which the cell cycle inhibitor p21^wafl is expressed induced by the ecdysone expression system and leads to an arrest of the cell cycle specifically in G1 and G2. Nonspecific substances inhibit proliferation independently of whether the RKO cell is arrested in G1 or G2 or not. In contrast, cell cycle-specific substances, such as, for example, tubulin inhibitors, are only cytotoxic if the cells are not arrested and the cell cycle is in progress. […] This underlines the arrest of the cell cycle in […] already found in the FACS analyses, and a cell cycle-specific action of the compounds tested.
The assay is carried out in 96-well plates. […] Comparison of the activity on induced and non-induced cells allows conclusions to be drawn about the mechanism of action (cell cycle specificity) of the therapeutics. Non-induced [sic] cells are sown at a cell count which is about four times higher than that of non-induced cells since, compared to non-induced cells, there is no further division during the assay (2×10^4 cells/well induced, about 0.6×10^4 cells/well not induced). The controls are untreated cells (+/− induction). Induction is carried out using 3 μM of muristerone A. On day 1, the cells are plated (+/− muristerone A) and incubated at 37° C. for 24 h. On day 2, the test substance is added (control DMSO) and incubation at 37° C. is continued for another 48 h, after which a standard XTT assay is carried out.

[7] = test system: human cervical carcinoma cell line KB/HeLa; assay: XTT cytotoxicity test, KB/HeLa; type: cell-based
[8] = test system: 12 permanent human tumor cell lines; assay: Propidium iodide-based cytotoxicity assay; type: cell-based
From the text: (§2) . The cell lines included intestinal (2), stomach (1), lung (3), breast (2), melanoma (2), ovary (1), kidney (1) and uterus (1) tumor cell lines. […]. Emphasis is furthermore to be given to the oral bioavailability of the indole compounds according to the invention. […]

[9] = test system: rhabdomyosarcoma SXF 463; assay: Human tumor xenograft SXF 463 in naked mice; type: in vivo; conditions: SXF 463, oral, 200 mg/kg, 2 weeks
From the text: as §1

[10] = test system: rat glioma cell line C6; assay: XTT cytotoxicity test, C6; conditions: 45 h, read-out: IC50 C6
[11] = Tolerability and oral administration in naked mice; type: in vivo
From the text: as §2

COc1ccc2[nH]c(C(=O)c3ccccc3)cc2c1 [Example D-64131, 5-methoxy-1H-2-indolylphenyl-1-methanone]
IC50 [1]: 22 nM | growth inhibition ([2]; 100 mg/kg/day): 66% | growth inhibition ([2]; 200 mg/kg/day): 81% | IC50 [3]: 24 nM | cells in the metaphase of mitotic division (M-phase) [4]: concentration-dependent arrest of the cells in mitosis | IC50 [5]: 51 nM | IC50 [6]: 15 nM | IC50 ([7]; 45 h, read-out: IC50 KB/HeLa): 24 nM | IC50 ([7]; read-out: Zytotoxizität KB/HeLa IC50): 24 nM | IC50 ([8]; 12 human tumor cell lines, read-out: average IC50 for all cell lines examined): 340 nM | IC50 ([8]; lung and stomach tumor cell lines, read-out: IC50): ~4000 nM | IC50 ([8]; melanoma, intestinal and kidney tumor cells, read-out: IC50): 4 nM | growth inhibition relative to the control [9]: 83% | IC50 [10]: 96.5 nM | oral bioavailability ([11]; concluded from oral activity): orally bioavailable | tolerated maximum dose ([11]; intraperitoneal injection, administered weekly): 400 mg/kg | tolerability ([11]; p.o. 100 and 200 mg/kg, Qdx5 for 2 weeks): tolerated very well
